According to PubChem BioAssay (NCI):
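Step 1: Grow cells in 96-well plates. Step 2: Expose to compound for 48 hours at 5 concentrations. Step 3: Interpolate endpoints linearly; if unreached, use highest concentration. At the GI50, growth is halved. The concentration for full growth arrest is given as TGI.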

Legend:
Assay in all cases: NCI anticancer screen, dose series, 48 h
[1] = tested on: 786-0 renal
[2] = tested on: A498 renal
[3] = tested on: A549 NSCLC
[4] = tested on: ACHN renal
[5] = tested on: BT-549 breast
[6] = tested on: CAKI-1 renal
[7] = tested on: COLO 205 colon
[8] = tested on: DU-145 prostate
[9] = tested on: EKVX NSCLC
[10] = tested on: HCC-2998 colon
[11] = tested on: HCT-15 colon
[12] = tested on: HL-60(TB) leukemia
[13] = tested on: HOP-62 NSCLC
[14] = tested on: HOP-92 NSCLC
[15] = tested on: HS 578T breast
[16] = tested on: HT29 colon
[17] = tested on: IGROV1 ovarian
[18] = tested on: K-562 leukemia
[19] = tested on: KM12 colon
[20] = tested on: LOX IMVI melanoma
[21] = tested on: M14 melanoma
[22] = tested on: MALME-3M melanoma
[23] = tested on: MCF7 breast
[24] = tested on: MDA-MB-435
[25] = tested on: MDA-MB-468 breast
[26] = tested on: MOLT-4 leukemia
[27] = tested on: NCI-H226 lung
[28] = tested on: NCI-H23 lung
[29] = tested on: NCI-H460 lung
[30] = tested on: NCI-H522 lung
[31] = tested on: OVCAR-3 ovarian
[32] = tested on: OVCAR-4 ovarian
[33] = tested on: OVCAR-5 ovarian
[34] = tested on: OVCAR-8 ovarian
[35] = tested on: PC-3 prostate
[36] = tested on: RXF 393 renal
[37] = tested on: SF-268 CNS
[38] = tested on: SF-295 CNS
[39] = tested on: SF-539 CNS
[40] = tested on: SK-MEL-2 melanoma
[41] = tested on: SK-MEL-28 melanoma
[42] = tested on: SK-MEL-5 melanoma
[43] = tested on: SK-OV-3 ovarian
[44] = tested on: SN12C renal
[45] = tested on: SNB-75 CNS
[46] = tested on: SW-620 colon
[47] = tested on: TK-10 renal
[48] = tested on: U251 CNS
[49] = tested on: UACC-257 melanoma
[50] = tested on: UACC-62 melanoma
[51] = tested on: HCT-116 colon
[52] = tested on: MDA-MB-231 breast
[53] = tested on: RPMI-8226 leukemia
[54] = tested on: SNB-19 CNS
[55] = tested on: SR leukemia
[56] = tested on: T-47D breast
[57] = tested on: UO-31 renal

## C=C1CC[C@@H]2[C@]3(C)COC(c4cn[nH]c4-c4cccc(Br)c4)O[C@@H]3CC[C@@]2(C)[C@@H]1C/C=C1/C(=O)OCC1O (some centres undefined)
[1]
  GI50: 1.92 µM
  TGI: 3.6 µM
[2]
  GI50: 20.8 µM
  TGI: 35.4 µM
[3]
  GI50: 3.37 µM
  TGI: 14.1 µM
[4]
  GI50: 1.95 µM
  TGI: 3.97 µM
[5]
  GI50: 1.44 µM
  TGI: 3 µM
[6]
  GI50: 2.77 µM
  TGI: 7.05 µM
[7]
  GI50: 2.18 µM
  TGI: 4.48 µM
[8]
  GI50: 3.08 µM
  TGI: 9.43 µM
[9]
  GI50: 2.15 µM
  TGI: 4.81 µM
[10]
  GI50: 1.87 µM
  TGI: 3.53 µM
[11]
  GI50: 1.66 µM
  TGI: 3.78 µM
[12]
  GI50: 1.87 µM
  TGI: 7.43 µM
[13]
  GI50: 3.78 µM
  TGI: 13.7 µM
[14]
  GI50: 2.21 µM
  TGI: 5.1 µM
[15]
  GI50: 5.27 µM
  TGI: 59.4 µM
[16]
  GI50: 2.1 µM
  TGI: 4.82 µM
[17]
  GI50: 2.72 µM
  TGI: 6.46 µM
[18]
  GI50: 1.93 µM
  TGI: 8.65 µM
[19]
  GI50: 2.44 µM
  TGI: 6.13 µM
[20]
  GI50: 1.39 µM
  TGI: 2.7 µM
[21]
  GI50: 2.52 µM
  TGI: 7.22 µM
[22]
  GI50: 1.93 µM
  TGI: 4.25 µM
[23]
  GI50: 1.28 µM
  TGI: 3.95 µM
[24]
  GI50: 3.4 µM
  TGI: 14.1 µM
[25]
  GI50: 1.61 µM
  TGI: 3.22 µM
[26]
  GI50: 2.29 µM
  TGI: 18.7 µM
[27]
  GI50: 1.62 µM
  TGI: 3.09 µM
[28]
  GI50: 1.84 µM
  TGI: 3.62 µM
[29]
  GI50: 2.43 µM
  TGI: 6.29 µM
[30]
  GI50: 1.9 µM
  TGI: 3.77 µM
[31]
  GI50: 2.02 µM
  TGI: 3.99 µM
[32]
  GI50: 4.47 µM
  TGI: 30.1 µM
[33]
  GI50: 2.14 µM
  TGI: 4.72 µM
[34]
  GI50: 1.88 µM
  TGI: 6.17 µM
[35]
  GI50: 3.07 µM
  TGI: 11.6 µM
[36]
  GI50: 1.81 µM
  TGI: 3.26 µM
[37]
  GI50: 12.6 µM
  TGI: 40.3 µM
[38]
  GI50: 1.83 µM
  TGI: 3.99 µM
[39]
  GI50: 1.74 µM
  TGI: 3.22 µM
[40]
  GI50: 2.55 µM
  TGI: 5.59 µM
[41]
  GI50: 1.93 µM
  TGI: 3.83 µM
[42]
  GI50: 1.75 µM
  TGI: 3.19 µM
[43]
  GI50: 5.8 µM
  TGI: 21.4 µM
[44]
  GI50: 2.03 µM
  TGI: 4.78 µM
[45]
  GI50: 2.45 µM
  TGI: 7.86 µM
[46]
  GI50: 2.22 µM
  TGI: 5.05 µM
[47]
  GI50: 5.1 µM
  TGI: 18.9 µM
[48]
  GI50: 1.81 µM
  TGI: 3.36 µM
[49]
  GI50: 2.85 µM
  TGI: 9.7 µM
[50]
  GI50: 1.55 µM
  TGI: 3.15 µM

## N#CC1=C(c2ccco2)Nc2c(c(-c3ccccc3)nn2-c2ccccc2)C12C(=O)Nc1ccc(Br)cc12 (centres undefined)
[1]
  GI50: 21.3 µM
  TGI: 51.8 µM
[2]
  GI50: 16.8 µM
  TGI: 32.1 µM
[3]
  GI50: 17.4 µM
  TGI: 33 µM
[4]
  GI50: 18.7 µM
  TGI: 35.7 µM
[5]
  GI50: 14.6 µM
  TGI: 29.7 µM
[6]
  GI50: 19.3 µM
  TGI: 43.2 µM
[7]
  GI50: 25.4 µM
  TGI: 69.1 µM
[8]
  GI50: 20.5 µM
  TGI: 40.2 µM
[9]
  GI50: 20.9 µM
  TGI: 54.6 µM
[10]
  GI50: 36.5 µM
  TGI: > 100 µM
[51]
  GI50: 18.6 µM
  TGI: 36.3 µM
[11]
  GI50: 18.1 µM
  TGI: 36.9 µM
[12]
  GI50: 53.2 µM
  TGI: > 100 µM
[13]
  GI50: 18.4 µM
  TGI: 37.8 µM
[14]
  GI50: 16.8 µM
  TGI: 33.2 µM
[15]
  GI50: 19.3 µM
  TGI: 47.8 µM
[16]
  GI50: 18.3 µM
  TGI: 35.2 µM
[17]
  GI50: 18.5 µM
  TGI: 34.6 µM
[18]
  GI50: 38 µM
  TGI: > 100 µM
[19]
  GI50: 33.2 µM
  TGI: > 100 µM
[20]
  GI50: 18.1 µM
  TGI: 34.8 µM
[21]
  GI50: 18.5 µM
  TGI: 36.8 µM
[22]
  GI50: 16.1 µM
  TGI: 29.9 µM
[23]
  GI50: 17.3 µM
  TGI: 33.1 µM
[52]
  GI50: 18.3 µM
  TGI: 34.2 µM
[24]
  GI50: 24.2 µM
  TGI: 61.5 µM
[25]
  GI50: 26 µM
  TGI: 69.3 µM
[26]
  GI50: 35.2 µM
  TGI: > 100 µM
[27]
  GI50: 21.1 µM
  TGI: 44.4 µM
[28]
  GI50: 21.5 µM
  TGI: 47.7 µM
[29]
  GI50: 17.9 µM
  TGI: 33.4 µM
[30]
  GI50: 20.4 µM
  TGI: 48.4 µM
[31]
  GI50: 28.9 µM
  TGI: 96.4 µM
[32]
  GI50: 19.2 µM
  TGI: 40.7 µM
[33]
  GI50: 19.1 µM
  TGI: 44.2 µM
[34]
  GI50: 18 µM
  TGI: 33.1 µM
[35]
  GI50: 16.2 µM
  TGI: 31.6 µM
[53]
  GI50: 35.9 µM
  TGI: > 100 µM
[36]
  GI50: 17.3 µM
  TGI: 34.5 µM
[37]
  GI50: 26.8 µM
  TGI: 74 µM
[38]
  GI50: 19.6 µM
  TGI: 50 µM
[39]
  GI50: 18.1 µM
  TGI: 35.1 µM
[40]
  GI50: 18.1 µM
  TGI: 36.7 µM
[41]
  GI50: 17.9 µM
  TGI: 33.6 µM
[42]
  GI50: 18 µM
  TGI: 32.6 µM
[43]
  GI50: 17.3 µM
  TGI: 34.1 µM
[44]
  GI50: 18.3 µM
  TGI: 35.6 µM
[54]
  GI50: 18.6 µM
  TGI: 42.2 µM
[45]
  GI50: 16 µM
  TGI: 38 µM
[55]
  GI50: 48.9 µM
  TGI: > 100 µM
[46]
  GI50: 30 µM
  TGI: 97.6 µM
[56]
  GI50: 30.4 µM
  TGI: > 100 µM
[47]
  GI50: 17 µM
  TGI: 33.5 µM
[48]
  GI50: 18 µM
  TGI: 33.4 µM
[49]
  GI50: 20.5 µM
  TGI: 50.6 µM
[50]
  GI50: 17.2 µM
  TGI: 32.1 µM
[57]
  GI50: 28.1 µM
  TGI: > 100 µM
